The subject of assay [1] is Pseudomonas aeruginosa strain ATCC27853. Briefly: Antimicrobial activity, MIC by broth microdilution. The assay is classed as cell-based. To be noted: ATCC27853, 18 h, cation-adjusted Mueller-Hinton broth, about 5×10^5 CFU/mL, 35° C., about 18 hours, read-out: MIC Pseudomonas aeruginosa ATCC27853. The essentials:
(§1)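 MIC read by eye as the lowest drug level lacking visible growth after roughly 18 h at 35° C. Cells from heart infusion agar, set to McFarland 0.5 and diluted, were inoculated at about 5×10^5 CFU/mL into cation-adjusted Mueller-Hinton broth with compound, per adapted CLSI microdilution.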
For orientation: Dilution methods test growth across graded concentrations, often in twofold steps.

The subject of assay [2] is Klebsiella pneumoniae strain ATCC13883. Kind of assay: Antimicrobial activity, MIC by broth microdilution. The assay is classed as cell-based. To be noted: ATCC13883, cation-adjusted Mueller-Hinton broth, about 5×10^5 CFU/mL, 35° C., about 18 hours, read-out: MIC Klebsiella pneumoniae ATCC13883. Put shortly: as §1
The subject of assay [3] is Escherichia coli strain ATCC25922. Kind of assay: Antimicrobial activity, MIC by broth microdilution. In kind it is cell-based. Conditions: ATCC25922, 18 h, cation-adjusted Mueller-Hinton broth, about 5×10^5 CFU/mL, 35° C., about 18 hours, read-out: MIC Escherichia coli ATCC25922. Put shortly:
as §1

Assay [4] concerns the target T1, Escherichia coli LpxC enzyme (Escherichia coli, UniProt P0A725).
T1 construct: made in house; host or cells: Escherichia coli
T1 sequence (P0A725 1-305): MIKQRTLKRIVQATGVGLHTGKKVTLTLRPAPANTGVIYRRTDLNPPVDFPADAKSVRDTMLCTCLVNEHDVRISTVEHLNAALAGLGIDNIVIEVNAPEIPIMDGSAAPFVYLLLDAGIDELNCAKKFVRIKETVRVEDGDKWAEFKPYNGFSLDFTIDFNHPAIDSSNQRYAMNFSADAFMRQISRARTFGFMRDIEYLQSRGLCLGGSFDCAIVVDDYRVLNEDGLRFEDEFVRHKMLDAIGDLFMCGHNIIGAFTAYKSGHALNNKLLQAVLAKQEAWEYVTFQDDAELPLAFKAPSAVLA
Briefly: Inhibitory activity on Escherichia coli LpxC enzyme (fluorescamine method). In kind it is biochemical. Here is the method: To assay the activity of Escherichia coli LpxC enzyme, LpxC was reacted with its substrate, UDP-3-O-(R-3-hydroxymyristoyl)-N-acetylglucosamine, and the amount of the reaction product was quantified by the amino groups present in the product
The reaction was terminated by the addition of 1.0 mg/mL-fluorescamine dissolved in a solvent obtained by mixing an equal amount of acetonitrile and dimethylformamide with the reaction mixture, and then, a 0.2 mol/L-sodium phosphate buffer solution (pH 8.0) was added thereto, and the amount of the reaction product was detected at an excitation wavelength/fluorescence wavelength=390 nm/495 nm. An inhibition curve was obtained by performing the aforementioned reaction in the presence of various concentrations of test compounds.

[5] abbreviates: fluorescamine detection, 3.1 nmol/L enzyme, 20 μmol/L substrate, pH 6.5, 120 min, read-out: IC50 (inhibitory activity on Escherichia coli LpxC enzyme, Fluoresamine method).

Molecules are shown by their SMILES. Converted amounts (≈) assume the structure as drawn. Where two headings read alike, the source gives them in different places.

A word on the MIC: it is the lowest concentration that inhibits growth of the organism. One may read the IC50 as the point on the concentration scale where inhibition reaches its midpoint. With `C[C@H](O)c1nccn1Cc1cc(-c2ccc(C#CC3CC(NC4COC4)C3)cc2)on1` (stereo partly drawn) [Compound 112, (1S)-1-[l-({5-[4-({3-[(oxetan-3-yl)amino]cyclobutyl}ethynyl)phenyl]-1,2-oxazol-3-yl}methyl)-1H-imidazol-2-yl]ethan-1-ol], the values for the MIC in assay [1], in assay [2] and in assay [3] were 32 µg/mL (≈ 76.5 µM), 1 µg/mL (≈ 2.39 µM) and 0.5 µg/mL (≈ 1.19 µM), respectively. In addition, in assay [4], the IC50 was determined as 79.7 nM.

Consider `C[C@H](O)c1nccn1Cc1cc(-c2ccc(C#C[C@@H]3[C@H]4CN(C(CO)CO)C[C@@H]34)cc2)on1` [Compound 56, 2-[(1R,5S,6s)-6-({4-[3-((2-[(1S)-1-hydroxyethyl]-1H-imidazol-1-yl}methyl)-1,2-oxazol-5-yl]phenyl}ethynyl)-3-azabicyclo[3.1.0]hexan-3-yl]propan-1,3-diol], for which the MIC in assay [1] turned out to be 8 µg/mL (≈ 17.8 µM); in assay [2], 2 µg/mL (≈ 4.46 µM); in assay [3], 1 µg/mL (≈ 2.23 µM). Also, in assay [4] (setting [5]), the IC50 came to 83.7 nM.

Take `C[C@H](O)c1nccn1Cc1cc(-c2ccc(C#C[C@H]3C[C@H](NC=O)C3)cc2)on1` [Compound 103, N-[trans-3-({4-[3-({2-[(1S)-1-Hydroxyethyl]-1H-imidazol-1-yl}methyl)-1,2-oxazol-5-yl]phenyl}ethynyl)cyclobutyl]formamide]: the MIC in assay [1] is over 128 µg/mL; in assay [2] it was 2 µg/mL (≈ 5.12 µM); in assay [3] it was 1 µg/mL (≈ 2.56 µM). This molecule returned an IC50 in assay [4] of 88 nM.

Consider `C[C@H](O)c1nccn1[C@H](CN)c1cc(-c2ccc(C#CC3CC3CO)cc2)on1` (relative stereo) [Compound 80, (1S)-1-(1-((1R)-2-amino-1-[5-(4-{[trans-2-(hydroxymethyl)cyclopropyl]ethynyl}phenyl)-1,2-oxazol-3-yl]ethyl}-1H-imidazol-2-yl)ethan-1-ol], for which the MIC was determined as 4 µg/mL (≈ 10.2 µM) in assay [1], 1 µg/mL (≈ 2.55 µM) in assay [2] and 0.25 µg/mL (≈ 0.637 µM) in assay [3]. In addition, in assay [4] (setting [5]), the IC50 amounted to 80.7 nM.

On to `C[C@H](O)c1nccn1Cc1cc(-c2ccc(C#CCO)cc2)on1` [Compound 48, 3-{4-[3-((2-[(1S)-1-hydroxyethyl]-1H-imidazol-1-yl}methyl)-1,2-oxazol-5-yl]phenyl}prop-2-yn-1-ol], for which the values for the MIC in assay [1], in assay [2] and in assay [3] were over 32 µg/mL, 32 µg/mL (≈ 99 µM) and 16 µg/mL (≈ 49.5 µM), respectively. Also, the IC50 in assay [4] (setting [5]) came out at 362 nM.

With `C[C@H](O)c1nccn1Cc1cc(-c2ccc(C#CC3CC(NC4CC4)C3)cc2)on1` (stereo partly drawn) [Compound 98, (1S)-1-(1-{[5-(4-{[3-(cyclopropylamino)cyclobutyl]ethynyl}phenyl)-1,2-oxazol-3-yl]methyl}-1H-imidazol-2-yl)ethan-1-ol], the MIC in assay [1] is 16 µg/mL (≈ 39.8 µM); in assay [2] it was 0.5 µg/mL (≈ 1.24 µM); in assay [3] it was 0.25 µg/mL (≈ 0.621 µM). In assay [4] (setting [5]), the concentration for half-maximal inhibition (IC50) worked out at 51.4 nM.

For `C[C@H](O)c1nccn1Cc1cc(-c2ccc(C#C[C@@H]3[C@H]4CN(C(=O)C(N)=O)C[C@@H]34)cc2)on1` [Compound 107, 2-[(1R,5S,6s)-6-((4-[3-((2-[(1S)-1-hydroxyethyl]-1H-imidazol-1-yl}methyl)-1,2-oxazol-5-yl]phenyl}ethynyl)-3-azabicyclo[3.1.0]hexan-3-yl]-2-oxoacetamide], the results for the MIC in assay [1], in assay [2] and in assay [3] were 8 µg/mL (≈ 18 µM), 1 µg/mL (≈ 2.24 µM) and 2 µg/mL (≈ 4.49 µM), respectively. The IC50 in assay [4] (setting [5]) turned out to be 78.6 nM.

Regarding `C[C@H](O)c1nccn1Cc1cc(-c2ccc(C#CC3C4COCC34)cc2)on1` (stereo partly drawn) [Compound 46, (1S)-1-{1-[(5-{4-[(3-oxabicyclo[3.1.0]hexan-6-yl)ethynyl]phenyl}-1,2-oxazol-3-yl)methyl]-1H-imidazol-2-yl} ethan-1-ol], the MIC in assay [1] is over 32 µg/mL; in assay [2] it was 0.12 µg/mL (≈ 0.32 µM); in assay [3], 0.12 µg/mL (≈ 0.32 µM). For the same molecule, the IC50 in assay [4] (setting [5]) worked out at 13.4 nM.

On to `C[C@H](O)c1nccn1Cc1cc(-c2ccc(C#C[C@@H]3[C@H]4CN(S(N)(=O)=O)C[C@@H]34)cc2)on1.Cl` [Compound 81, (1R,5S,6s)-6-((4-[3-({2-[(1S)-1-Hydroxyethyl]-1H-imidazol-1-yl}methyl)-1,2-oxazol-5-yl]phenyl}ethynyl)-3-azabicyclo[3.1.0]hexane-3-sulfonamide hydrochloride], for which the figures for the MIC in assay [1], in assay [2] and in assay [3] were over 4 µg/mL, 1 µg/mL and 0.5 µg/mL, respectively. For the same molecule, the IC50 in assay [4] (setting [5]) came out at 69.6 nM.

As for `C[C@H](O)c1nccn1Cc1cc(-c2ccc(C#CC3CCOCC3)cc2)on1` [Compound 31, (1S)-1-{1-[(5-{4-[(oxan-4-yl)ethynyl]phenyl}-1,2-oxazol-3-yl)methyl]-1H-imidazol-2-yl) ethan-1-ol], the MIC in assay [1] was over 128 µg/mL; in assay [2], 2 µg/mL (≈ 5.3 µM); in assay [3], 1 µg/mL (≈ 2.65 µM). Further, the IC50 in assay [4] (setting [5]) came to 32.8 nM.

For the molecule `C[C@H](O)c1nccn1Cc1cc(-c2ccc(C#CC3C(CO)C3CO)cc2)on1` (stereo partly drawn) [Compound 109, (1S)-1-(1-{[5-(4-{[2,3-Bis(hydroxymethyl)cyclopropyl]ethynyl}phenyl)-1,2-oxazol-3-yl]methyl}-1H-imidazol-2-yl)ethan-1-ol], the MIC in assay [1] came to 64 µg/mL (≈ 163 µM); in assay [2], 32 µg/mL (≈ 81.3 µM); in assay [3] it was 16 µg/mL (≈ 40.7 µM). The molecule also returned an IC50 in assay [4] of 131 nM.

As for `C[C@H](O)c1nccn1[C@H](CN(C)C)c1cc(-c2ccc(C#C[C@@H]3[C@H]4CN(CCO)C[C@@H]34)cc2)on1` [Compound 39, (1S)-1-(1-{(1R)-2-(Dimethylamino)-1-[5-(4-{[(1R,5S,6s)-3-(2-hydroxyethyl)-3-azabicyclo[3.1.0]hexan-6-yl]ethynyl}phenyl)-1,2-oxazol-3-yl]ethyl}-1H-imidazol-2-yl)ethan-1-ol], the values for the MIC in assay [1], in assay [2] and in assay [3] were 8 µg/mL (≈ 16.8 µM), 4 µg/mL (≈ 8.41 µM) and 2 µg/mL (≈ 4.21 µM), respectively. Moreover, the IC50 in assay [4] (setting [5]) came out at 1820 nM.

In the case of `C[C@H](O)c1nccn1Cc1cc(-c2ccc(C#C[C@@H]3[C@H]4CN(CCN)C[C@@H]34)cc2)on1` [Compound 122, (1S)-1-(1-{[5-(4-{[(1R,5S,6s)-3-(2-aminoethyl)-3-azabicyclo[3.1.0]hexan-6-yl]ethynyl}phenyl)-1,2-oxazol-3-yl]methyl}-1H-imidazol-2-yl)ethan-1-ol], the MIC in assay [1], in assay [2] and in assay [3] was 4 µg/mL (≈ 9.58 µM) in each case. Also, the IC50 in assay [4] (setting [5]) stood at 84.6 nM.

On to `COCCN1C[C@@H]2[C@@H](C#Cc3ccc(-c4cc(Cn5ccnc5[C@H](C)O)on4)cc3)[C@@H]2C1` [Compound 84, (1S)-1-(1-{[3-(4-{[(1R,5S,6s)-3-(2-methoxyethyl)-3-azabicyclo[3.1.0]hexan-6-yl]ethynyl}phenyl)-1,2-oxazol-5-yl]methyl}-1H-imidazol-2-yl)ethan-1-ol], for which the MIC in assay [1] came out at 16 µg/mL (≈ 37 µM); in assay [2] it was 0.5 µg/mL (≈ 1.16 µM); in assay [3], 0.5 µg/mL (≈ 1.16 µM). In addition, the IC50 in assay [4] (setting [5]) was 102 nM.

`C[C@H](O)c1nccn1Cc1cc(-c2ccc(C#CC3(O)CC3)cc2)on1` [Compound 52, 1-({4-[3-({2-[(1S)-1-hydroxyethyl]-1H-imidazol-1-yl}methyl)-1,2-oxazol-5-yl]phenyl}ethynyl)cyclopropan-1-ol]: the MIC in assay [1] came out at 128 µg/mL (≈ 366 µM); in assay [2], 4 µg/mL (≈ 11.4 µM); in assay [3], 2 µg/mL (≈ 5.72 µM). Further, in assay [4] (setting [5]), the IC50 stood at 83.5 nM.

Consider `COCCC#Cc1ccc(-c2cc(Cn3ccnc3[C@H](C)O)no2)cc1` [Compound 65, (1S)-1-[l-({5-[4-(4-methoxybut-1-yn-1-yl)phenyl]-1,2-oxazol-3-yl)methyl)-1H-imidazol-2-yl]ethan-1-ol], for which the minimal inhibitory concentration (MIC) in assay [1] was over 128 µg/mL; in assay [2], 1 µg/mL (≈ 2.85 µM); in assay [3], 0.5 µg/mL (≈ 1.42 µM). In addition, the IC50 in assay [4] (setting [5]) was 39.1 nM.

For the molecule `C[C@H](O)c1nccn1Cc1cc(-c2ccc(C#C[C@@H]3[C@H]4CN(CCCCC(=O)O)C[C@@H]34)cc2)on1` [Compound 93, 5-[(1R,5S,6s)-6-({4-[3-((2-[(1S)-1-hydroxyethyl]-1H-imidazol-1-yl}methyl)-1,2-oxazol-5-yl]phenyl}ethynyl)-3-azabicyclo[3.1.0]hexan-3-yl]pentanoic acid], the MIC in assay [1] came to 8 µg/mL (≈ 16.9 µM); in assay [2], 4 µg/mL (≈ 8.43 µM); in assay [3], 4 µg/mL (≈ 8.43 µM). In assay [4] (setting [5]), the IC50 stood at 371 nM.

For `C[C@H](O)c1nccn1Cc1cc(-c2ccc(C#CC(C)(C)C)cc2)on1` [Compound 43, (1S)-1-[1-({5-[4-(3,3-dimethylbut-1-yn-1-yl)phenyl]-1,2-oxazol-3-yl}methyl)-1H-imidazol-2-yl]ethan-1-ol], the MIC in assay [1] is over 32 µg/mL; in assay [2], 2 µg/mL (≈ 5.72 µM); in assay [3] it was 1 µg/mL (≈ 2.86 µM). The IC50 in assay [4] (setting [5]) is 47.1 nM.

The values above are taken from US20220002279A1, “NOVEL IMIDAZOLE DERIVATIVE” (priority 2018, published 2022).
